Source: US20240398736A1, “Eyedrops for Treating Scleral Thinning and Screening Method for Therapeutic Agent of Scleral Thinning” (Tsubota Laboratory, Inc., priority 2020, published 2024)
“Also recorded” adds a separate entry of the source.

Experiments:
myopia-induced mouse [1] = experiment: Eyedrop administration of UPR inhibitors during myopia induction in mouse: axial elongation and refraction (Test Example 2); assay type: in vivo; conditions: eyedrop once a day for 10 days during myopia induction; 100 μM each (STF 60 μM); -30 D lens eye
Protocol: Specifically, a myopia-induced mouse is produced as follows.
During the myopia induction, 60 μM STF080312 (STF), 100 μM 4μ8C (4μ8C), 100 μM GSK2656157 (GSK), 100 μM GSK2606414 (GSK2606414), 100 μM Nelfinavir Mesylate hydrate (NFV), or 100μM Ceapin-A7 (Ceapin) was eye-dropped to both eyes once a day every day in the evening for 10 days.
It is said that increase of expression of URP gene pathway is a cause of pathologic axial elongation and scleral thinning in high myopia (Patent Literature 1). Therefore, in this Test Example 2, it was evaluated, in the sclera of a myopia-induced mouse in which scleral thinning had been caused, how the phenotype of axial elongation was affected by a known URP gene inhibitor. It is noted that GSK2656157 (GSK) and GSK2606414 were used as the PERK inhibitor, Nelfinavir Mesylate hydrate (NFV) and Ceapin-A7 were used as the ATF6 inhibitor, and STF080312 (STF) and 4μ8C were used as the IRE1 inhibitor (FIG. 4).
In accordance with the test method described above, the axial elongation caused in using each of the various gene inhibitors in a myopia-induced mouse was evaluated (FIG. 4).
FIGS. 5a and 5b illustrate axial elongation (a) and refraction change (b) obtained after eyedrop administration of 60 μM STF, 100 μM GSK, or 100 μM NFV once a day for 10 days during the myopia induction period of the mouse. Besides, FIGS. 5c and 5d illustrate axial elongation (a) and refraction change (b) obtained after similarly eyedrop administration of a combination of these inhibitors (STF+GSK:S+G, GSK+NFV:G+N, NFV+STF:N+S, or STF+GSK+NTF:S+G+N). Besides, FIG. 6 illustrates axial elongation (a) and refraction change (b) obtained after similarly eyedrop administration of 100 μM GSK2606414, Ceapin-A7, or 4μ8C.

myopia-induced mouse [2] = experiment: Intraperitoneal injection of 4-PBA or TUDCA during myopia induction in mouse: axial elongation and refraction (Test Example 3)
Protocol: Specifically, a myopia-induced mouse is produced as follows. It is noted that myopia induction, and measurement of an axial length and refraction were performed by methods similar to those described in Non Patent Literatures 6 and 7. First, a male C57BL6J mouse was put in a standard transparent cage under a 12/12 h light/dark cycle in a temperature controlled clean room. The animal was allowed to free access to standard feed and autoclaved tap water. A 3-week-old mouse immediately after weaning was anesthetized with a mixed anesthetic of three anesthetics, that is, Domitor (Nippon Zenyaku Kogyo Co., Ltd.), Butorphanol (Meiji Seika Pharma Co., Ltd.), and Midazolam (Sandoz K. K.), and the skull was exposed with scissors. As illustrated in FIG. 1(b), a post was provided to stand on the skull, and fixed with dental cements (Super-Bond, Sun Medical Company, Ltd.). The post was provided with a screw thread so that an adjustor described below could be fixed thereon with a nut.
For inducing myopia, a minus lens having a power of −30 diopters (D) (Rainbow Contact, RAINBOW OPTICAL LABORATORY CO., LTD.) was worn on the right eye (myopia-induced eye), and a lens having a power of 0 D or only a frame was worn as a control on the left eye (control eye). […] The protector used here was attached to be integral with the frame portion, but the protector needs not be integral with the lens as long as the lens is not damaged by the behavior of the mouse.
Sodium phenylbutyrate (Cayman Chemical, MI, USA) and tauroursodeoxycholic acid (Sigma Aldrich, Tokyo, Japan) were dissolved in PBS. STF080310 (Selleck Biotech, Tokyo, Japan) or 4μ8C (Selleck Biotech) of an IRE1 inhibitor, GSK2656157 (Selleck Biotech) or GSK2606414 (Selleck Biotech) of a PERK inhibitor, and Nelfinavir Mesylate hydrate (Tokyo Chemical Industry Co., Ltd.) or Ceapin-A7 (Sigma Aldrich) of an ATF6 inhibitor were dissolved in DMSO, and the resultant was diluted to 1:1000 with PBS to be used in an eyedrop test.
A solution of sodium phenylbutyrate in PBS (4-PBA; 200 mg/kg) or tauroursodeoxycholic acid (TUDCA; 100 mg/kg) was intraperitoneally injected (i.p.) every day during the myopia induction period.

[3] = TUDCA 100 mg/kg intraperitoneal injection during myopia induction

Compound	axial elongation of myopia-induced eye (myopia-induced mouse [1])	myopic refraction of myopia-induced eye (myopia-induced mouse [1])	axial elongation (pathologic, myopia-induced eye) (myopia-induced mouse [2]; [3])	myopic refraction (myopia-induced mouse [2]; [3])	physiological axial elongation (myopia-induced mouse [2]; mouse, in vivo)
Cc1cc(=O)oc2c(C=O)c(O)ccc12 [4μ8C]	neither axial elongation nor myopic refraction was inhibited	neither axial elongation nor myopic refraction was inhibited			
O=C(Nc1cnn(Cc2ccc(C(F)(F)F)cc2C(F)(F)F)c1)c1cc(-c2ccco2)on1 [Ceapin-A7]	neither axial elongation nor myopic refraction was inhibited	neither axial elongation nor myopic refraction was inhibited			
Cn1cc(-c2ccc3c(c2)CCN3C(=O)Cc2cccc(C(F)(F)F)c2)c2c(N)ncnc21 [GSK2606414]	neither axial elongation nor myopic refraction was inhibited	neither axial elongation nor myopic refraction was inhibited			
C[C@H](CCC(=O)NCCS(=O)(=O)O)[C@H]1CC[C@H]2[C@@H]3[C@@H](O)C[C@@H]4C[C@H](O)CC[C@]4(C)[C@H]3CC[C@]12C [TUDCA, tauroursodeoxycholic acid]			pathologic axial elongation alone was inhibited; also recorded: the axial elongation is inhibited	the myopic refraction is inhibited	physiological axial elongation was not inhibited
